In ChEMBL document CHEMBL3044830, “Synthesis, characterization, antibacterial, antifungal, and immunomodulating activities of gatifloxacin derivatives” (Med Chem Res, 2010):

Columns and labels:
[1] = system: Citrobacter; test: Antibacterial activity against Citrobacter assessed as concentration required to obtain a zone of inhibition of 10 mm after 18 to 24 hr by disk diffusion method; assay type: functional
[2] = system: Trichophyton rubrum; test: Antifungal activity against Trichophyton rubrum assessed as concentration required to obtain a zone of inhibition of 20 mm after 7 days by disk diffusion method; assay type: functional
[3] = system: Shigella flexneri; test: Antibacterial activity against Shigella flexneri assessed as concentration required to obtain a zone of inhibition of 10 mm after 18 to 24 hr by disk diffusion method; assay type: functional
[4] = system: Shigella sp.; test: Antibacterial activity against Shigella typhi assessed as concentration required to obtain a zone of inhibition of 5 mm after 18 to 24 hr by disc diffusion method; assay type: functional
[5] = system: Klebsiella pneumoniae; test: Antibacterial activity against Klebsiella pneumoniae assessed as zone of inhibition at 5 to 40 ug/ml after 18 to 24 hr by disk diffusion method relative to gatifloxacin; assay type: functional
[6] = system: Shigella sp.; test: Antibacterial activity against Shigella typhi assessed as zone of inhibition after 18 to 24 hr by disc diffusion method relative to gatifloxacin; assay type: functional
[7] = system: T-cell; test: Anti-inflammatory activity in Homo sapiens (human) T lymphocytes assessed as inhibition of PHA-induced [3H] thymidine uptake at 12.5 ug/ml incubated for 72 hr prior to [3H]thymidine addition measured after 18 hr by liquid scintillation method; assay type: functional
[8] = system: Fusarium solani; test: Antifungal activity against Fusarium solani assessed as concentration required to obtain a zone of inhibition of 20 mm after 7 days by disk diffusion method; assay type: functional
[9] = system: T-cell; test: Anti-inflammatory activity in Homo sapiens (human) T lymphocytes assessed as inhibition of PHA-induced [3H] thymidine uptake incubated for 72 hr prior to [3H]thymidine addition measured after 18 hr by liquid scintillation method; assay type: functional, cell-based
[10] = system: Shigella flexneri; test: Antibacterial activity against Shigella flexneri assessed as concentration required to obtain a zone of inhibition of 5 mm after 18 to 24 hr by disk diffusion method; assay type: functional
[11] = system: Staphylococcus aureus; test: Antibacterial activity against methicillin-resistant Staphylococcus aureus assessed as zone of inhibition at 5 to 40 ug/ml after 18 to 24 hr by disk diffusion method relative to gatifloxacin; assay type: functional
[12] = system: Blood; test: Antioxidant activity in Homo sapiens (human) whole blood assessed as inhibition of ROS production at 12.5 ug/ml after 30 min by luminol-enhanced chemiluminescence assay; assay type: functional; details: 0.5 h
[13] = system: Candida albicans; test: Antifungal activity against Candida albicans assessed as concentration required to obtain a zone of inhibition of 20 mm after 7 days by disk diffusion method; assay type: functional
[14] = system: Shigella flexneri; test: Antibacterial activity against Shigella flexneri assessed as zone of inhibition at 5 to 40 ug/ml after 18 to 24 hr by disk diffusion method relative to gatifloxacin; assay type: functional
[15] = system: Proteus mirabilis; test: Antibacterial activity against Proteus mirabilis assessed as zone of inhibition at 5 to 40 ug/ml after 18 to 24 hr by disc diffusion method relative to gatifloxacin; assay type: functional
[16] = system: Citrobacter; test: Antibacterial activity against Citrobacter assessed as concentration required to obtain a zone of inhibition of 20 mm after 18 to 24 hr by disk diffusion method; assay type: functional
[17] = system: Fusarium solani; test: Antifungal activity against Fusarium solani assessed as zone of inhibition at 5 to 40 ug/ml after 7 days by disk diffusion method relative to gatifloxacin; assay type: functional
[18] = system: Shigella sp.; test: Antibacterial activity against Shigella typhi assessed as concentration required to obtain a zone of inhibition of 10 mm after 18 to 24 hr by disc diffusion method; assay type: functional

SMILES	Activity [1] [µg/mL]	Activity [2] [µg/mL]	Activity [3] [µg/mL]	Activity [4] [µg/mL]	inhibition zone (IZ) [5] [%]	inhibition zone (IZ) [6] [%]	inhibition at 12.5 µg/mL [7] [%]	Activity [8] [µg/mL]	IC50 [9] [µg/mL]	Activity [10] [µg/mL]	inhibition zone (IZ) [11] [%]	inhibition at 12.5 µg/mL [12] [%]	Activity [13] [µg/mL]	inhibition zone (IZ) [14] [%]	inhibition zone (IZ) [15] [%]	Activity [16] [µg/mL]	inhibition zone (IZ) [17] [%]	Activity [18] [µg/mL]
CCCCCCCC(=O)N1CCN(c2c(F)cc3c(=O)c(C(=O)O)cn(C4CC4)c3c2OC)CC1C.O (configuration not stated)	10	16	15	8	113	87.5	-41.5	14	> 50	12	76.7	74.1	16	105	92	15	110	–
COc1c(N2CCN(C(=O)c3ccccc3)C(C)C2)c(F)cc2c(=O)c(C(=O)O)cn(C3CC3)c12.O (configuration not stated)	10	21	13	8	99.8	80.2	-41.5	17	> 50	11	87.4	-5.1	10	88.1	78.8	12	120	9
COc1c(N2CCN(C(C)=O)C(C)C2)c(F)cc2c(=O)c(C(=O)O)cn(C3CC3)c12.O (configuration not stated)	21	28	22	9	158	113	-35.7	13	> 50	19	124	-14.3	16	151	76.6	24	93.3	–
